According to US20210206763A1, “Anti-Proliferative Agents” (FEMTOGENIX LIMITED, priority 2015, published 2021):

Assays:
[1] = test system: fluorescently labelled DNA duplex 5′-AAAAAAAGAAATTTAAA-3′; assay: FRET DNA melting of fluorescently labelled duplex; assay type: binding; details: fragments of 41, FIG. 12B
Excerpt: FRET DNA melting studies were undertaken on a fluorescently labelled duplex DNA sequence reacted with 41 and fragmented forms of the molecule (i.e, using intermediates 106, […] and 148). The sequence (FIG. 10) was designed to provide additional evidence that 41 can effectively stabilise a particular DNA sequence derived through the Footprinting studies (i.e., XGXWWWW where X represents any base, G represents guanine and W indicates adenine or thymine). […] The labels were fluorescein (F) and dabcyl (Q).
Oligonucleotides were obtained from ATDbio (Southampton, UK) in lyophilised form. They were labelled with a fluorophore molecule (F=fluorescein) at the 5′-end and a quencher molecule (Q=dabcyl) at the 3′-end of the complementary strand. Each oligonucleotide was dissolved in distilled H2O to form stock solutions of 100 μM. Working solutions of 5 μM were prepared by diluting the stock solution with distilled H2O.
The following buffers were used: 250 mM phosphate buffer pH 7.4 (consisting of sodium dihydrogen phosphate and sodium phosphate diluted in distilled H2O) and 5 M sodium chloride buffer. All buffers and distilled H2O were filtered through a 0.2 VIM filter prior to use.
For the FRET experiments stock solutions of 41, 106, 107 and 148 were prepared by dissolving the compounds in DMSO to give a concentration of 10 mM. From this stock solution, working solutions of the desired concentration were prepared by diluting the stock solution with distilled H2O.
The reaction mixture was comprised of 4 μL of 250 mM phosphate buffer (final concentration of 50 mM), 4 μL flourophor and 4 μL quencher molecule of the appropriate oligonucleotide for a final concentration of 0.2 μM, 4 μL 5 M sodium chloride (final concentration of 1 M NaCl), and 4 μL of distilled H2O. […] This mixture was analysed without prior annealing.
Fluorescence melting profiles were measured using a Roche LightCycler using a total reaction volume of 20 μL. […] Annealing steps and melting steps were all recorded and changes in fluorescence were measured at 520 nm. […]

[2] = test system: AP-1 Transcription Factor duplex DNA sequence; assay: FRET DNA melting assay with transcription factor duplex DNA; assay type: binding; details: 1 μM ligand concentration; 24 hours incubation
Description: (§1) Oligonucleotide sequences used for the FRET assays were purchased from Eurogentec, Southampton, UK: TAMRA (6-carboxytetramethylrhodamine) and FAM (6-carboxyfluorescein) are acceptor and donor fluorophores, respectively. From 20 μM stock solutions, 400 nM solutions in FRET buffer (optimized as 50 mM potassium, 50 mM cacodylate, pH 7.4) were prepared prior to use. The oligonucleotides were annealed through heating the samples to 90° C. for 10 mins followed by cooling to room temperature and storing at this temperature for 5 h. Dilutions from the initial 5 mM DMSO stock solution were performed using FRET buffer. Annealed DNA (50 μL) and sample solution (50 μL) were added to each well of a 96-well plate (MJ Research, Waltham, Mass.), and processed in a DNA Engine Opticon (MJ Research). Fluorescence readings were taken at intervals of 0.5° C. over the range 30-100° C., with a constant temperature maintained for 30 seconds prior to each reading. Incident radiation of 450-495 nm was used, with detection at 515-545 nm. The raw data were imported into the program Origin (Version 7.0, OringinLab Corp.), and the graphs were smoothed using a 10-point running average, and then normalized. Determination of melting temperatures was based on values at the maxima of the first derivative of the smoothed melting curves using a script. The difference between the melting temperature of each sample and that of the blank (ΔTm) was used for comparative purposes.

[3] = test system: NFκB Transcription Factor duplex DNA sequence; assay: as above; assay type: binding; details: 1 μM ligand concentration; 24 hours incubation
Description: as §1

[4] = test system: HeLa (Cervical cancer cell line); assay: MTT cytotoxicity assay of C8-linked PDD monomers; assay type: cell-based; details: Homo sapiens, 72 hours exposure
Description: (§2) MDA MB231 (triple negative human breast cancer) was obtained from the American Type Culture Collection. The cell-line was maintained in monolayer culture in 75 cm^2 flasks (TPP, Switzerland) under a humidified 5% CO2 atmosphere at 37° C. The MDA MB231 cell line was maintained in high glucose DMEM (4.5 g/l; Invitrogen), foetal bovine serum (10%, Biosera UK), non-essential amino acids (ix; Invitrogen), L-glutamine (2 mM; Invitrogen) and Penicillin-Streptomycin (1% v/v, Invitrogen). The HeLa cell line was maintained in Dulbecco's Modified Eagles Media (DMEM; Invitrogen) supplemented with foetal bovine serum (10% v/v; Invitrogen), L-glutamine (2 mM; Invitrogen), non-essential amino acids (lx; Invitrogen) and Penicillin-Streptomycin (1% v/v, Invitrogen). For passaging, cells were washed with PBS (GIBCO 14040, Invitrogen, UK), incubated with trypsine (GIBCO 25300, Invitrogen, UK), and re-seeded into fresh medium. For seeding, cells were counted using a Neubauer haemocytometer (Assistant, Germany) by microscopy (Nikon, USA) on a non-adherent suspension of cells that were washed in PBS, trypsinised, centrifuged at 8° C. at 8000 rpm for 5 min and re-suspended in fresh medium.
(§3) The cells were grown in normal cell culture conditions at 37° C. under a 5% CO2 humidified atmosphere using appropriate medium. The cell count was adjusted to 10^5 cells/ml and 5,000-20,000 cells were added per well depending on the cell line. The cells were incubated for 24 hours and 1 μl of the appropriate inhibitor concentrations were added to the wells in triplicates. After 72 h of continuous exposure to each compound, the cytotoxicity was determined using the 3-(4,5-Dimethylthiazol-2-yl)-2,5-diphenyltetrazolium bromide (MTT) (Lancaster Synthesis Ltd, UK) colorimetric assay.^[34 Absorbance was quantified by spectrophotometry at λ=570 nm (Envision Plate Reader, PerkinElmer, USA). IC50 values were calculated by a dose-response analysis using the GraphPad Prism® software.

[5] = test system: MDA MB 231 (Triple negative breast cancer cell line); assay: MTT cytotoxicity assay of C8-linked PDD monomers; assay type: cell-based; details: Homo sapiens, 72 hours exposure
Description: as §2, §3

[6] = test system: NFκB transcription factor binding sequence (duplex oligonucleotide); assay: DNA adduct formation by HPLC; details: 4:1 molar ratio ligand:oligonucleotide, room temperature
Description: Interaction of C8-linked PDD monomers with duplex transcription factor consensus sequence was studied with an HPLC assay utilizing a X-bridge MS C18 2.5 μM OST column (2.3×50 mm) and a gradient of 40% acetonitrile/water and 100 mM TEAB ([…])/water as mobile phase with a flow rate of 0.5 mL/min and UV detection at 254 nm. A 4:1 molar ratio of ligand:oligonucleotide was used, with each single-stranded oligonucleotide dissolved in 1 M ammonium acetate to form stock solutions of 1 mM. The oligonucleotides were initially annealed by heating their 1 mM solutions to 70° C. for 10 mins followed by gradual cooling over 8 hours and storage overnight at −20° C. Working solutions of oligonucleotides of 25 μM were then prepared by diluting the annealed stock solutions with 100 mM ammonium acetate. The ligands were dissolved in DMSO to form a stock solution of 10 mM which was stored at −20° C. for no longer than four months. Working solutions of the drug of 100 μM were prepared by diluting the stock solution with 100 mM ammonium acetate. The working solutions of the ligands were added to the working solution the oligonucleotides at RT, and the mixture incubated for different time intervals at room temperature.

[7] = in vivo; cited from earlier work

SMILES | DNA stabilisation (FRET melting) [1] | ΔTm AP-1 (1st transition) [2] | ΔTm AP-1 (2ND transition) [2] | ΔTm NFκB (1st transition) [3] | ΔTm NFκB (2ND transition) [3] | IC50 [4] | IC50 [5] | DNA adduct formation (HPLC chromatogram) [6] | adverse effects in Phase I clinical evaluation [7]
COc1cc2c(cc1OCCCC(=O)O)N=C[C@@H]1CCCCN1C2=O [Compound 107, (S)-4-((2-Methoxy-12-oxo-6a,7,8,9,10,12-hexahydrobenzo[e]pyrido[1,2-a][1,4]diazepin-3-yl)oxy)butanoic acid] | little DNA stabilisation | – | – | – | – | – | – | – | –
COC(=O)c1cc2cc(NC(=O)c3cc(NC(=O)CCCOc4cc5c(cc4OC)C(=O)N4CCCC[C@H]4C=N5)cn3C)ccc2s1 [Compound 13, Methyl (S)-5-(4-(4-((2-methoxy-12-oxo-6a,7,8,9,10,12-hexa-hydrobenzo[e]pyrido[1,2-a][1,4]diazepin-3-yl)oxy)butanamido)-1-methyl-1H-pyrrole-2-carboxamido)benzo[b]thiophene-2-carboxylate] | – | 11 °C | 19 °C | 12 °C | 23 °C | 0.6 ± 0.4 nM | 64 ± 9.6 nM | DNA adduct formation | –
COc1cc2c(cc1O)N=C[C@@H]1CCCCN1C2=O [Compound 106, (S)-3-Hydroxy-2-methoxy-7,8,9,10-tetrahydrobenzo[e]pyrido[1,2-a][1,4]diazepin-12(6aH)-one] | little DNA stabilisation | – | – | – | – | – | – | – | –
COC(=O)c1cc2cc(NC(=O)c3nc(NC(=O)CCCOc4cc5c(cc4OC)C(=O)N4CCCC[C@H]4C=N5)cn3C)ccc2s1 [Compound 17, Methyl (S)-5-(4-(4-((2-methoxy-12-oxo-6a,7,8,9,10,12-hexa-hydrobenzo[e]pyrido[1,2-a][1,4]diazepin-3-yl)oxy)butanamido)-1-methyl-1H-imidazole-2-carboxamido)benzo[b]thiophene-2-carboxylate] | – | 13 °C | 18 °C | 11 °C | 26 °C | 1.2 ± 0.8 nM | 21 ± 1.8 nM | DNA adduct formation | –
Cn1cc(N)cc1C(=O)Nc1ccc(-c2cc(C(=O)Nc3ccc(N)cc3)n(C)c2)cc1 [Compound 148, 4-Amino-N-(4-(5-((4-aminophenyl)carbamoyl)-1-methyl-1H-pyrrol-3-yl)phenyl)-1-methyl-1H-pyrrole-2-carboxamide] | little DNA stabilisation | – | – | – | – | – | – | – | –
COC(=O)c1cc(-c2ccc(NC(=O)c3cc(NC(=O)CCCOc4cc5c(cc4OC)C(=O)N4CCCC[C@H]4C=N5)cn3C)cc2)cn1C [Compound 24, Methyl (S)-4-(4-(4-(4-((2-methoxy-12-oxo-6a,7,8,9,10,12-hexahydrobenzo[e]pyrido[1,2-a][1,4]diazepin-3-yl)oxy)butanamido)-1-methyl-1H-pyrrole-2-carboxamido)phenyl)-1-methyl-1H-pyrrole-2-carboxylate] | – | 9 °C | 15 °C | 10 °C | 14 °C | 1 ± 0.12 nM | 0.8 ± 0.66 nM | DNA adduct formation | –
COC(=O)c1cc(-c2ccc(NC(=O)c3nc(NC(=O)CCCOc4cc5c(cc4OC)C(=O)N4CCCC[C@H]4C=N5)cn3C)cc2)cn1C [Compound 20, Methyl (S)-4-(4-(4-(4-((2-methoxy-12-oxo-6a,7,8,9,10,12-hexahydrobenzo[e]pyrido[1,2-a][1,4]diazepin-3-yl)oxy)butanamido)-1-methyl-1H-imidazole-2-carboxamido)phenyl)-1-methyl-1H-pyrrole-2-carboxylate] | – | 8 °C | 13 °C | 9 °C | 12 °C | 0.14 ± 0.09 nM | 0.3 ± 0.22 nM | DNA adduct formation | –
C=C1C[C@H]2C=Nc3cc(OCCCOc4cc5c(cc4OC)C(=O)N4CC(=C)C[C@H]4C=N5)c(OC)cc3C(=O)N2C1 [SJG-136] | – | – | – | – | – | – | – | – | lower-limb edema and fatigue
